How the values were obtained:
Assay type in all cases: functional, cell-based
[1] = test system: ARH-77; assay: cells; conditions: Homo sapiens;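 note: growth inhibition of ARH-77 cells, read out by a cell viability assay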
Description: SANGER: Inhibition of human ARH-77 cell growth in a cell viability assay.

[2] = test system: NCI-H2081; assay: cells; conditions: Homo sapiens;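 note: growth inhibition of human NCI-H2081 cells, read out with a cell viability assay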
Description: SANGER: Inhibition of human NCI-H2081 cell growth in a cell viability assay.

[3] = test system: RL; assay: cells; conditions: Homo sapiens
Description: SANGER: Inhibition of human RL cell growth in a cell viability assay.

[4] = test system: NCI-H1436; assay: cells; conditions: Homo sapiens;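 note: growth suppression of human NCI-H1436 cells, determined with a cell viability readout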
Description: SANGER: Inhibition of human NCI-H1436 cell growth in a cell viability assay.

[5] = test system: GDM-1; assay: cells; conditions: Homo sapiens;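 note: cell viability readout used to measure growth inhibition of human GDM-1 cells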
Description: SANGER: Inhibition of human GDM-1 cell growth in a cell viability assay.

[6] = test system: NCI-H1694; assay: cells; conditions: Homo sapiens;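 note: cell viability assay measuring inhibition of growth in human NCI-H1694 cells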
Description: SANGER: Inhibition of human NCI-H1694 cell growth in a cell viability assay.

[7] = test system: LP-1; assay: cells; conditions: Homo sapiens;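 note: growth inhibition of human LP-1 cells, with the read-out taken from a cell viability assay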
Description: SANGER: Inhibition of human LP-1 cell growth in a cell viability assay.

[8] = test system: WSU-NHL; assay: cells; conditions: Homo sapiens;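 note: growth inhibition of human WSU-NHL cells, read out with a cell viability assay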
Description: SANGER: Inhibition of human WSU-NHL cell growth in a cell viability assay.

[9] = test system: NCI-H2171; assay: cells; conditions: Homo sapiens;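 note: growth inhibition of human NCI-H2171 cells, read out by a cell viability assay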
Description: SANGER: Inhibition of human NCI-H2171 cell growth in a cell viability assay.

[10] = test system: MHH-CALL-2; assay: cells; conditions: Homo sapiens;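 note: growth inhibition of the cell line, read out in a cell viability assay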
Description: SANGER: Inhibition of human MHH-CALL-2 cell growth in a cell viability assay.

[11] = test system: NCI-H1882; assay: cells; conditions: Homo sapiens;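 note: growth inhibition of the cell line, determined with a viability assay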
Description: SANGER: Inhibition of human NCI-H1882 cell growth in a cell viability assay.

[12] = test system: LOUCY; assay: cells; conditions: Homo sapiens;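 note: growth inhibition of human LOUCY cells, read out with a cell viability assay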
Description: SANGER: Inhibition of human LOUCY cell growth in a cell viability assay.

[13] = test system: SU-DHL-1; assay: SANGER: Inhibition of human SU-DHL-1 cell growth in a cell viability assay.
[14] = test system: KARPAS-422; assay: cells; conditions: Homo sapiens
Description: SANGER: Inhibition of human KARPAS-422 cell growth in a cell viability assay.

[15] = test system: K052; assay: cells; conditions: Homo sapiens;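 note: Read-out from a cell viability assay, IC50 reflecting suppression of K052 cell growth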
Description: SANGER: Inhibition of human K052 cell growth in a cell viability assay.

[16] = test system: Raji; assay: cells; conditions: Homo sapiens;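 note: cell viability assay measuring inhibition of Raji cell growth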
Description: SANGER: Inhibition of human Raji cell growth in a cell viability assay.

[17] = test system: COR-L279; assay: SANGER: Inhibition of human COR-L279 cell growth in a cell viability assay.
[18] = test system: BL-70; assay: SANGER: Inhibition of human BL-70 cell growth in a cell viability assay.
[19] = test system: CESS; assay: SANGER: Inhibition of human CESS cell growth in a cell viability assay.
[20] = test system: SCC-3; assay: cells; conditions: Homo sapiens;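 note: cell viability assay measuring inhibition of SCC-3 cell growth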
Description: SANGER: Inhibition of human SCC-3 cell growth in a cell viability assay.

[21] = test system: RPMI-6666; assay: cells; conditions: Homo sapiens
Description: SANGER: Inhibition of human RPMI-6666 cell growth in a cell viability assay.

[22] = test system: SK-MM-2; assay: cells; conditions: Homo sapiens;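 note: growth inhibition of human SK-MM-2 cells, read out with a cell viability assay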
Description: SANGER: Inhibition of human SK-MM-2 cell growth in a cell viability assay.

[23] = test system: LU-165; assay: cells; conditions: Homo sapiens
Description: SANGER: Inhibition of human LU-165 cell growth in a cell viability assay.

[24] = test system: SUP-T1; assay: cells; conditions: Homo sapiens;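 note: growth inhibition of human SUP-T1 cells, read out as cell viability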
Description: SANGER: Inhibition of human SUP-T1 cell growth in a cell viability assay.

[25] = test system: NCI-H1417; assay: cells; conditions: Homo sapiens;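 note: human NCI-H1417 cells, growth inhibition determined with a cell viability readout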
Description: SANGER: Inhibition of human NCI-H1417 cell growth in a cell viability assay.

[26] = test system: HCC1599; assay: cells; conditions: Homo sapiens;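 note: growth inhibition of HCC1599 cells, read out in a cell viability assay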
Description: SANGER: Inhibition of human HCC1599 cell growth in a cell viability assay.

[27] = test system: SCLC-21H; assay: cells; conditions: Homo sapiens;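 note: growth inhibition of cultured human SCLC-21H cells, read out with a cell viability assay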
Description: SANGER: Inhibition of human SCLC-21H cell growth in a cell viability assay.

[28] = test system: Daudi; assay: cells; conditions: Homo sapiens;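 note: growth inhibition of Daudi cells, read out by a viability assay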
Description: SANGER: Inhibition of human Daudi cell growth in a cell viability assay.

[29] = test system: KMS-12-PE; assay: cells; conditions: Homo sapiens;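 note: growth inhibition of human KMS-12-PE cells, measured with a cell viability assay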
Description: SANGER: Inhibition of human KMS-12-PE cell growth in a cell viability assay.

[30] = test system: MDA-MB-134-VI; assay: cells; conditions: Homo sapiens
Description: SANGER: Inhibition of human MDA-MB-134-VI cell growth in a cell viability assay.

[31] = test system: LC-1F; assay: cells; conditions: Homo sapiens;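 note: growth inhibition of human LC-1F cells, read out with a cell viability assay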
Description: SANGER: Inhibition of human LC-1F cell growth in a cell viability assay.

[32] = test system: EB-3; assay: cells; conditions: Homo sapiens;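 note: human EB-3 cells, growth inhibition read out via a cell viability assay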
Description: SANGER: Inhibition of human EB-3 cell growth in a cell viability assay.

[33] = test system: P31-FUJ; assay: cells; conditions: Homo sapiens;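 note: growth inhibition of P31-FUJ cells, read out with a viability assay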
Description: SANGER: Inhibition of human P31-FUJ cell growth in a cell viability assay.

[34] = test system: NCI-H2141; assay: cells; conditions: Homo sapiens;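 note: growth inhibition of human NCI-H2141 cells, read out with a cell viability assay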
Description: SANGER: Inhibition of human NCI-H2141 cell growth in a cell viability assay.

[35] = test system: NCI-H719; assay: cells; conditions: Homo sapiens;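 note: growth inhibition of the cultured cell line, read out with a viability assay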
Description: SANGER: Inhibition of human NCI-H719 cell growth in a cell viability assay.

[36] = test system: JIYOYE; assay: cells; conditions: Homo sapiens
Description: SANGER: Inhibition of human JiyoyeP-2003 cell growth in a cell viability assay.

[37] = test system: MONO-MAC-6; assay: cells; conditions: Homo sapiens;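 note: cell viability assay measuring growth inhibition of human MONO-MAC-6 cells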
Description: SANGER: Inhibition of human MONO-MAC-6 cell growth in a cell viability assay.

[38] = test system: DG-75; assay: cells; conditions: Homo sapiens;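 note: growth inhibition of DG-75 cells, read out with a cell viability assay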
Description: SANGER: Inhibition of human DG-75 cell growth in a cell viability assay.

[39] = test system: SNU-16; assay: cells; conditions: Homo sapiens;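 note: growth inhibition of human SNU-16 cells, determined with a cell viability readout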
Description: SANGER: Inhibition of human NCI-SNU-16 cell growth in a cell viability assay.

SMILES	IC50 [1]	IC50 [2]	IC50 [3]	IC50 [4]	IC50 [5]	IC50 [6]	IC50 [7]	IC50 [8]	IC50 [9]	IC50 [10]	IC50 [11]	IC50 [12]	IC50 [13]	IC50 [14]	IC50 [16]	IC50 [17]	IC50 [18]	IC50 [19]	IC50 [20]	IC50 [21]	further results
CC1=C2C[C@H]3[C@@H](CC=C4C[C@@H](O)CC[C@@]43C)[C@@H]2CC[C@]12O[C@@H]1C[C@H](C)CN[C@H]1[C@H]2C [CYCLOPAMINE]	> 16 µM	> 16 µM	> 16 µM	> 16 µM	> 16 µM	> 16 µM	> 16 µM	> 16 µM	> 16 µM	> 16 µM	> 16 µM	> 16 µM	> 16 µM	> 16 µM	> 16 µM	> 16 µM	> 16 µM	> 16 µM	> 16 µM	> 16 µM	IC50 [15]: > 16 µM; IC50 [22]: > 16 µM; IC50 [23]: > 16 µM; IC50 [24]: > 16 µM; IC50 [25]: > 16 µM; IC50 [26]: > 16 µM; IC50 [27]: > 16 µM; IC50 [28]: > 16 µM; IC50 [29]: > 16 µM; IC50 [30]: > 16 µM; IC50 [31]: > 16 µM; IC50 [32]: > 16 µM; IC50 [33]: > 16 µM; IC50 [34]: > 16 µM; IC50 [35]: > 16 µM; IC50 [36]: > 16 µM; IC50 [37]: > 16 µM; IC50 [38]: > 16 µM; IC50 [39]: > 16 µM
CS(=O)(=O)CCNCc1ccc(-c2ccc3ncnc(Nc4ccc(OCc5cccc(F)c5)c(Cl)c4)c3c2)o1 [LAPATINIB]	> 2 µM	> 2 µM	> 2 µM	> 2 µM	> 2 µM	> 2 µM	> 2 µM	> 2 µM	> 2 µM	> 2 µM	> 2 µM	> 2 µM	> 2 µM	> 2 µM	> 2 µM	> 2 µM	> 2 µM	> 2 µM	> 2 µM	> 2 µM	IC50 [22]: > 2 µM; IC50 [23]: > 2 µM; IC50 [24]: > 2 µM; IC50 [25]: > 2 µM; IC50 [26]: > 2 µM; IC50 [27]: > 2 µM; IC50 [28]: > 2 µM; IC50 [29]: > 2 µM; IC50 [30]: > 2 µM; IC50 [31]: 1.38 µM; IC50 [32]: > 2 µM; IC50 [33]: > 2 µM; IC50 [34]: > 2 µM; IC50 [35]: > 2 µM; IC50 [36]: > 2 µM; IC50 [37]: > 2 µM; IC50 [38]: > 2 µM; IC50 [39]: > 2 µM
O=C(/C=C/c1ccccc1)NC(NC(=S)Nc1cccc2cccnc12)C(Cl)(Cl)Cl (stereo unspecified) [SALUBRINAL]	> 16 µM	> 16 µM	> 16 µM	> 16 µM	> 16 µM	> 16 µM	3.37 µM	> 16 µM	> 16 µM	> 16 µM	> 16 µM	> 16 µM	> 16 µM	> 16 µM	> 16 µM	> 16 µM	> 16 µM	11.7 µM	> 16 µM	> 16 µM	IC50 [15]: > 16 µM; IC50 [22]: > 16 µM; IC50 [23]: > 16 µM; IC50 [24]: > 16 µM; IC50 [25]: > 16 µM; IC50 [26]: 12.1 µM; IC50 [27]: > 16 µM; IC50 [28]: 6.34 µM; IC50 [29]: > 16 µM; IC50 [30]: > 16 µM; IC50 [31]: > 16 µM; IC50 [32]: 9.63 µM; IC50 [33]: > 16 µM; IC50 [34]: > 16 µM; IC50 [35]: > 16 µM; IC50 [36]: > 16 µM; IC50 [37]: 10.5 µM; IC50 [38]: > 16 µM; IC50 [39]: > 16 µM

— ChEMBL document CHEMBL1201861, “Genomics of Drug Sensitity in Cancer screening data, Wellcome Trust Sanger Institute”
